Measured values from paper PMC6934184, “Selective DNA-PKcs inhibition extends the therapeutic index of localized radiotherapy and chemotherapy” (The Journal of Clinical Investigation, 2019).

Target: T1, MAPK8 (JNK1) (Homo sapiens, UniProt P45983)
T1 construct: purchased Thermo Fisher Scientific (Life Technologies) SelectScreen
Assay: SelectScreen Z'LYTE
Format: biochemical
Conditions: ATP 100 µM
In short: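 NU5455 was profiled across the SelectScreen Broad panel of kinase activity and binding assays. Z'LYTE reactions such as CSF1R ran at apparent Km ATP, while the Adapta CAMK1 assay used ATP listed as 10. Values are given as percent.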

T1 sequence (P45983 whole entry): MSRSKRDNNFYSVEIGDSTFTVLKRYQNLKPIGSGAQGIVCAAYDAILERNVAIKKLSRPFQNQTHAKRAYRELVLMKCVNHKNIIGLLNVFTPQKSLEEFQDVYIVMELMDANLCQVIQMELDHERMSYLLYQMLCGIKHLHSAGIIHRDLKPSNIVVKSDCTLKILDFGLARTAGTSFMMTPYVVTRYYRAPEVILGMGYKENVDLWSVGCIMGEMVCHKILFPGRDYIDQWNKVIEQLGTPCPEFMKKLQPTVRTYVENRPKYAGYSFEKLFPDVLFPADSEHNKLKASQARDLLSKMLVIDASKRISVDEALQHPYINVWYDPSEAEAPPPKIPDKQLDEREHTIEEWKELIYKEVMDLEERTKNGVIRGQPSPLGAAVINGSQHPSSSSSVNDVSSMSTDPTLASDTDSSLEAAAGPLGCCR

CN(C(=O)CN1CCOCC1)c1ccc2sc3c(-c4cccc5c(=O)cc(N6CC7CCC(C6)O7)oc45)cccc3c2c1 [NU5455]
inhibition at 1 µM: 12%
